Data set [1] in a line: physchem.
Data set [2] is described as follows: physchem. Particulars: octanol/water.
For data set [3] the following is noted: buffer, pH 2.
The conditions of data set [4]: buffer, pH 2. This is another data set of the same source.
The conditions of data set [5]: octanol/water.

For orientation: pKa means the negative logarithm of the acid dissociation constant. Lower therefore signals a stronger acid or weaker base. As usually defined, the logP is a log measure of how a compound divides between an organic and an aqueous phase.

`CN(C)Cc1ccccc1` displayed a pKa in the data set “physchem [1]” of 9.02. For the same molecule, the logP in the data set “physchem [2]” stood at 1.91. The “log K” value in data set [3] is -0.23; in data set [4], 0.43.
In data set [5], `C=CCc1ccccc1OCC(O)CNC(C)C` (stereo unspecified) [ALPRENOLOL] registered a logPc of 0.25. Moreover, the “log K” value in data set [3] is reported as -0.36; in data set [4] it was 2.02.
Take `CN1CCc2cccc3c2[C@H]1Cc1ccc(O)c(O)c1-3` [APOMORPHINE]: the logP in “physchem [2]” came out at 2.49. Besides, the “log K” value was found to be 0.33 in data set [3] and 2.74 in data set [4].
`CC(C)NCC(O)COc1ccc(COCCOC(C)C)cc1` (stereo unspecified) [BISOPROLOL] showed a logPc in data set [5] of -1.22. Further, the entries for the “log K” value in data set [3] and in data set [4] were -0.41 and 1.17, respectively.
Consider `CCCCN` [BUTYLAMINE], for which, in “physchem [1]”, the pKa amounted to 10.8. Further, the “log K” value in data set [3] stood at 0.29; in data set [4], 0.756.
In “physchem [1]”, `CC(C)NCC(O)COc1cccc2[nH]c3ccccc3c12` (stereo unspecified) [CARAZOLOL] returned a pKa of 9.52. Besides, the logPc in data set [5] is given as 0.77. For the same molecule, the “log K” value is given as -0.01 in data set [3] and 2.97 in data set [4].
In turn, `COc1ccccc1OCCNCC(O)COc1cccc2[nH]c3ccccc3c12` (stereo unspecified) [CARVEDILOL] displayed a pKa in “physchem [1]” of 7.97. The same molecule showed a logPc in data set [5] of 1.92. In addition, the “log K” value was -0.2 in data set [3] and 3.1 in data set [4].
In the data set “physchem [1]”, `Cc1cccc(C)c1NC(=O)C1CCCCN1C` (stereo unspecified) [MEPIVACAINE] had a pKa of 7.6. For the same molecule, the “log K” value in data set [3] is on record as -0.18; in data set [4], 0.85.
The molecule `CC([C@H](O)c1ccccc1)N(C)C` (stereo partly specified) [METHYLEPHEDRINE] returned a pKa in “physchem [1]” of 9. The logP in the data set “physchem [2]” stood at 1.55. Further, the “log K” value in data set [3] was -0.14; in data set [4] it was 0.64.
In “physchem [1]”, `CC(=O)Oc1c(C)cc(OCC(O)CNC(C)C)c(C)c1C` (stereo unspecified) [METIPRANOLOL] showed a pKa of 9.54. The logPc in data set [5] is reported as -0.26. Besides, the “log K” value in data set [3] was -0.5; in data set [4], 1.57.
For the molecule `COCCc1ccc(OCC(O)CNC(C)C)cc1` (stereo unspecified) [METOPROLOL], the logPc in data set [5] was -1.1. In addition, the “log K” value in data set [3] was -0.27; in data set [4], 1.1.
In “physchem [1]”, `NCCO` [MONOETHANOLAMINE] displayed a pKa of 0.92. Moreover, the “log K” value is listed as 1.1 in data set [3] and -0.54 in data set [4].
Consider `C1COCCN1` [MORPHOLINE], for which the “log K” value in data set [3] is 0.48; in data set [4] it was -0.27.
The molecule `CC(=O)Oc1cc(C(C)C)c(OCCN(C)C)cc1C` [MOXISYLYTE] came in with a pKa in “physchem [1]” of 8.72. The “log K” value in data set [3] is -0.86; in data set [4] it was 1.53.
Turning to `CC(C)(C)NCC(O)COc1cccc2c1CC(O)C(O)C2` (stereo unspecified) [NADOLOL], the logP in the data set “physchem [2]” is 0.81. The “log K” value in data set [3] is on record as 0.5; in data set [4], 0.59.
As for `CN1CCC[C@H]1c1cccnc1` [NICOTINE], the pKa in the data set “physchem [1]” was found to be 3.4. In “physchem [2]”, this molecule showed a logP of 1.34. Moreover, the “log K” value in data set [3] is recorded as 0.14; in data set [4], -0.02.
In “physchem [1]”, `NCC(O)c1ccc(O)cc1` (stereo unspecified) [OCTOPAMINE] gave a pKa of 8.81. Besides, the “log K” value in data set [3] stood at 1.15; in data set [4], 0.44.
In turn, `C=CCOc1ccccc1OCC(O)CNC(C)C` (stereo unspecified) [OXPRENOLOL] displayed a pKa in “physchem [1]” of 9.57. In addition, the logPc in data set [5] is recorded as -0.13. The entries for the “log K” value in data set [3] and in data set [4] were -0.34 and 1.43, respectively.
In “physchem [1]”, `CC(C)(C)NC[C@H](O)COc1ccccc1C1CCCC1` [PENBUTOLOL] registered a pKa of 9.92. This molecule yielded a logP in the data set “physchem [2]” of 4.62. The molecule further showed a logPc in data set [5] of 1.32. Besides, the figures for the “log K” value in data set [3] and in data set [4] were -0.51 and 3.08, respectively.
On to `CC(C)NCC(O)COc1cccc2[nH]ccc12` (stereo unspecified) [PINDOLOL], for which the logPc in data set [5] is reported as -1.32. Moreover, the “log K” value in data set [3] was 0.08; in data set [4] it was 1.63.
Take `CCCNC(C)C(=O)Nc1ccccc1C` (stereo unspecified) [PRILOCAINE]: the pKa in “physchem [1]” is 7.8. In addition, the results for the “log K” value in data set [3] and in data set [4] were -0.17 and 0.93, respectively.
For `CCN(CC)CCOC(=O)c1ccc(N)cc1` [PROCAINE], in that order: 9, -0.26 and 1.05.
On to `CC(C)NCC(O)COc1cccc2ccccc12` (stereo unspecified) [PROPRANOLOL], for which the results for the “log K” value in data set [3] and in data set [4] were -0.19 and 2.71, respectively.
Turning to `C1COC(NC(C2CC2)C2CC2)=N1` [RILMENIDINE], the pKa in “physchem [1]” came out at 9.22. In the data set “physchem [2]”, the logP was 1.7. Also, the “log K” value in data set [3] was -0.41; in data set [4], 0.88.
Turning to `NCCc1c[nH]c2ccc(O)cc12` [SEROTONIN], the figures for the “log K” value in data set [3] and in data set [4] were 1.15 and 1.19, respectively.
Take `O=C1C[C@@H]2OCC=C3CN4CC[C@]56c7ccccc7N1[C@H]5[C@H]2[C@H]3C[C@H]46` [STRYCHNINE]: the “log K” value is recorded as 0.06 in data set [3] and 1.18 in data set [4].
In the case of `CC(C)(C)NC[C@H](O)COc1nsnc1N1CCOCC1` [TIMOLOL], the pKa in the data set “physchem [1]” worked out at 9.53. In addition, in “physchem [2]”, the logP was 2.12. Further, the logPc in data set [5] is recorded as -0.94. Besides, the results for the “log K” value in data set [3] and in data set [4] were 0.08 and 0.9, respectively.
For the molecule `COC(=O)[C@@H](N)Cc1ccc(O)cc1` [TYROSINE METHYL ESTER], the “log K” value in data set [3] is recorded as 0.57; in data set [4], 0.26.

(Values after ChEMBL document CHEMBL1138504, “Lipophilicity of basic drugs measured by hydrophilic interaction chromatography” (J Med Chem, 2009).)
